According to article PMC4641600, “Novel Activities of Select NSAID R-Enantiomers against Rac1 and Cdc42 GTPases” (PLoS ONE, 2015):
Like-named read-outs stand apart in the source and are kept apart here. Each block holds one molecule with its values, some of them ahead of it.

Tests used:
[1] = biological target: T1, Rac1 (Mus musculus, UniProt P63001); assay: GLISA, Swiss 3T3 cells; assay type: cell-based; conditions: for EGF-mediated Rac1 activation: 300 μM
T1 construct: endogenous in cells; host or cells: Swiss 3T3

[2] = biological target: H-Ras wt (Homo sapiens, UniProt P01112); assay: Dose response, BODIPY-GTP binding; conditions: 10 nM to 100 µM
Procedure: (§1) For multiplex analyses of small GTPases, 4 μm diameter glutathione-beads (GSH-beads) distinguished by seven different intensities of red fluorescence were used according to our previously described protocols. The GST-GTPases included the following eight Ras-related small GTPases: Rab2 wt, Rab7 wt, Cdc42 wt, Cdc42Q61L activating mutant, H-Ras wt, H-RasG12V, Rac1 wt and Rac1Q61L activating mutant. Briefly, Prestwick Chemical Library® compounds were tested at 10 μM compound and 1% DMSO final concentrations. After a 10 min pre-incubation with the compound BODIPY- FL-GTP (100 nM final) was added to each well and bead associated fluorescence was measured. Sample analysis was conducted with a HyperCyt® high throughput flow cytometry platform. Flow cytometric light scatter at 488 nm and fluorescence emission at 530 +/− 20 nm (FL1) and 665 +/− 10 nm (FL8) were collected on a Cyan ADP flow cytometer (Beckman Coulter, Fullerton, CA). IDLQuery software was used to determine the compound activity in each well. Gating based on forward scatter (FS) and side scatter (SS) parameters was used to identify singlet bead populations. Gating based on FL8 emission distinguishes the beads coated with different proteins, and the median FL1 fluorescence per bead population were calculated. A compound was considered a “potential active” if the change in BODIPY-FL-GTP binding differed greater than 20% from that measured in DMSO treated controls.
(§2) Test compounds identified for follow-up after the primary screen were tested at dilutions ranging from 10 nM to 100 μM final concentration against individual GTPases in multiplex and single-plex assays. Compounds tested in dose response assays were serially diluted 1:3 a total of eight times from a starting concentration of 10 mM giving a 9-point dilution series in DMSO.
(§3) bConfirmatory screens entailed dose response assays conducted in a multiplex format with eight GTPases tested as for primary screen. BODIPY-GTP-binding activity was
(§4) measured in the presence of 10 nM to 100 µM of each of 11 test compounds (4 primary screen hits and 7 additional NSAIDs considered to have chemical similarity to GTPase
(§5) active compounds). GST-GFP coated beads served as a control to detect non-specific dissociation or denaturation caused by compound addition–none of the tested NSAIDs had
(§6) any effect on bead-GST-protein binding. EC50 values were determined using Prism to determine dose response fits as shown in Figure 1 of main text; fits have R2 > 0.9. Active
(§7) compounds based on same definition used as in primary screena. […]

[3] = tested on: COX-1; conditions: IC50 values not calculated; thromboxane B2, collagen-stimulated human platelets; cited from earlier work
[4] = tested on: Rab2 wt, Rab7 wt, Cdc42 wt, Cdc42Q61L, H-Ras wt, H-RasG12V, Rac1 wt and Rac1Q61L; assay: Primary multiplex screen, BODIPY-FL-GTP binding on bead-bound GTPases (flow cytometry)
[5] = biological target: Rab7 (Homo sapiens, UniProt P51149); assay: Dose response, BODIPY-GTP binding; conditions: 10 nM to 100 µM
[6] = tested on: Ras-related GTPases; assay: Confirmatory dose response assays on eight Ras-related GTPases; assay type: binding
Procedure: as §1, §2, §3, §4, §5, §6, §7
(§8) ‡A well-characterized selective Cdc42 inhibitor served as a positive control.

[7] = tested on: Rac1 membrane localization; assay: Rac1 immunolocalization, OvCa433 cells; assay type: cell-based, human
[8] = tested on: Tiam1 membrane localization; assay: Tiam1 immunolocalization, OvCa433 cells; assay type: cell-based, human
Procedure: OvCa433 were plated on coverslips, treated with 300 μM NSAIDs for 1 h, fixed with 3% paraformaldehyde and immunostained for Rac1 or Tiam1. Actin was visualized with rhodamine phalloidin from Invitrogen (F432). Cells were imaged on a Zeiss LSM510 using a 63x objective and quantified using Image J.
Rac1 and Tiam1 antibodies were confirmed in our hands to recognize single protein species of the predicted molecular weight by immunoblot.

[9] = biological target: Rab2 (Homo sapiens, UniProt P61019); assay: Dose response, BODIPY-GTP binding; conditions: 10 nM to 100 µM
[10] = tested on: OvCa429 cells; conditions: 300 μM, relative to 6-MNA
[11] = tested on: Rac1 and Tiam1 protein levels; assay: Immunoblot of protein levels; assay type: cell-based, human
Procedure: Cells were stimulated with EGF at a final concentration of 1 nM for 10 min. Cells were lysed in a RIPA buffer consisting of 50 mM Tris pH 7.4, 1% NP-40, 0.25% sodium deoxycholate, 150 mM NaCl, 1 mM EDTA, 1 mM PMSF, 1 mM sodium vanadate, 10 mM sodium fluoride, 1 μg/mL each of pepstatin, aprotinin and leupeptin, 10 mM sodium pyrophosphate and 10 mM beta-glycerophosphate.
N = 3. See also Figure D in S1 File for time dependent loss of Rac1 membrane localization. N = 3 (B) Quantification of image intensity using Image J of 3 representative confocal images as shown in panel (A) containing 20–30 cells/field normalized to actin and untreated controls. (C) Western blot analyses of lysates from cells treated with 300 μM compound as indicated for 24 h as compared to untreated controls. […] Blots were probed for Tiam1 (200 kDa), GAPDH (37 kDa), Rac1 (20 kDa), as a loading control. (D) Quantification of image intensity using Image J. Each marker was normalized to GAPDH and untreated controls. N = 3.

[12] = tested on: OvCa433 cells; conditions: 0-300 µM, 48 h
[13] = biological target: H-RasG12V (Homo sapiens, UniProt P01112, G12V); assay: Dose response, BODIPY-GTP binding; conditions: 10 nM to 100 µM
Procedure: as §1, §2, §3, §4, §5, §6, §7, §8

[14] = biological target: T2, Rac1 (Homo sapiens, UniProt P63000); assay: G-trap flow cytometric effector binding assay, HeLa cells; assay type: cell-based; conditions: ketorolac enantiomers, EGF stimulation, read-out: EC50 against Rac1
T2 construct: endogenous in cells; host or cells: HeLa

[15] = biological target: T3, human COX-1 (Homo sapiens, UniProt P23219); assay: Cyclooxygenase assay (CEREP), PGE2 formation; assay type: biochemical; conditions: recombinant enzyme, 4 μM arachidonic acid
T3 construct: purchased CEREP Laboratories (contract assay); host or cells: Sf-9

[16] = biological target: T4, Cdc42 (Homo sapiens, UniProt P60953); assay: G-trap flow cytometric effector binding assay, HeLa cells; assay type: cell-based; conditions: ketorolac enantiomers, EGF stimulation, read-out: EC50 against Cdc42
T4 construct: endogenous in cells; host or cells: HeLa

[17] = tested on: migration Rac1/Cdc42 dependent; assay: Migration IC50 (Table F); assay type: cell-based; conditions: ketorolac, calculated by GraphPad Prism5; read-out: IC50 migration Rac1/Cdc42 dependent (est)
[18] = biological target: T5, human COX-2 (Homo sapiens, UniProt P35354); assay: Cyclooxygenase assay (CEREP), PGE2 formation; assay type: biochemical; conditions: recombinant enzyme, 4 μM arachidonic acid
T5 construct: purchased CEREP Laboratories (contract assay); host or cells: Sf-9
T5 sequence (P35354 18-604): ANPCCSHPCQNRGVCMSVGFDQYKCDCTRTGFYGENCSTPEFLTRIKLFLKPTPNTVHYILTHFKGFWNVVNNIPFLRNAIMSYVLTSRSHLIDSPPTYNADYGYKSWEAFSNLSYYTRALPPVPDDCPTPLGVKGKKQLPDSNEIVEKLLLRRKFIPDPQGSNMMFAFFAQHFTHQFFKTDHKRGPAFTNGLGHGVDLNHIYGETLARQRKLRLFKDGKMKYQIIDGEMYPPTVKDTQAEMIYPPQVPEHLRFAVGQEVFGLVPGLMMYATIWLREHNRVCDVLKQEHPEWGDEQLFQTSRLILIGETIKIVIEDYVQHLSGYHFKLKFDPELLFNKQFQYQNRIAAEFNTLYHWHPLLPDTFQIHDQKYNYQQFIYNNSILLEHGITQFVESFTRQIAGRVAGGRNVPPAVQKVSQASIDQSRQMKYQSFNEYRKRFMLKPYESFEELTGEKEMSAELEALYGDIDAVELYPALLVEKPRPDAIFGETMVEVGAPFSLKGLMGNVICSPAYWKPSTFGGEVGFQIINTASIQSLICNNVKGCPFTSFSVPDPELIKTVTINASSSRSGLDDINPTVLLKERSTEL

[19] = tested on: purified ovine COX-1; set-up: method as in ref 14 (a number printed in a supplementary file, which may have a reference list of its own: not looked up in the article's list); conditions: purified ovine enzyme; cited from earlier work
[20] = biological target: T6, Cdc42 (Mus musculus, UniProt P60766); assay: GLISA, Swiss 3T3 cells; assay type: cell-based; conditions: 1 h pretreatment, EGF stimulation
T6 construct: endogenous in cells; host or cells: Swiss 3T3

[21] = tested on: COX-2; set-up: method as in ref 15 (a number printed in a supplementary file, which may have a reference list of its own: not looked up in the article's list); conditions: ovine seminal vesicles or human whole blood; cited from earlier work
[22] = tested on: purified ovine COX-2; set-up: method as in ref 14 (a number printed in a supplementary file, which may have a reference list of its own: not looked up in the article's list); conditions: purified ovine enzyme; cited from earlier work
[23] = tested on: Rac1; conditions: cited from earlier work
[24] = tested on: OvCa429 and OvCa433 cells; assay: Boyden chamber cell migration assay; assay type: cell-based, human; conditions: estimated from limited dose response data; read-out: IC50 migration Rac1/Cdc42 dependent (est)
[25] = tested on: Cdc42; conditions: cited from earlier work
[26] = biological target: Rac1 wt (Homo sapiens, UniProt P63000); assay: Dose response, BODIPY-GTP binding; conditions: 10 nM to 100 µM
[27] = biological target: Rac1Q61L activating mutant (Homo sapiens, UniProt P63000, Q61L); assay: Dose response, BODIPY-GTP binding; conditions: 10 nM to 100 µM
[28] = tested on: migration Rac1/Cdc42 dependent; set-up: method as in ref 28 (a number printed in a supplementary file, which may have a reference list of its own: not looked up in the article's list); conditions: read-out: IC50 migration Rac1/Cdc42 dependent (est); cited from earlier work
[29] = biological target: Cdc42 wt (Homo sapiens, UniProt P60953); assay: Dose response, BODIPY-GTP binding; conditions: 10 nM to 100 µM
[30] = biological target: Cdc42Q61L activating mutant (Homo sapiens, UniProt P60953, Q61L); assay: Dose response, BODIPY-GTP binding; conditions: 10 nM to 100 µM; read-out: Cdc42 (act) EC50
[31] = immunofluorescence quantified using ImageJ

Rab7, sequence (P51149 whole entry, species assumed): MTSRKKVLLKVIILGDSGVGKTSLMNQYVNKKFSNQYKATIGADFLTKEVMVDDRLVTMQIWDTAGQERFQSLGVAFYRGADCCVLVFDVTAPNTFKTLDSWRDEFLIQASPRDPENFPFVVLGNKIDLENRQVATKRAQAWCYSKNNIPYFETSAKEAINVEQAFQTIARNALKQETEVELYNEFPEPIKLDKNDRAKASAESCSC
Rab2, sequence (P61019 whole entry, species assumed): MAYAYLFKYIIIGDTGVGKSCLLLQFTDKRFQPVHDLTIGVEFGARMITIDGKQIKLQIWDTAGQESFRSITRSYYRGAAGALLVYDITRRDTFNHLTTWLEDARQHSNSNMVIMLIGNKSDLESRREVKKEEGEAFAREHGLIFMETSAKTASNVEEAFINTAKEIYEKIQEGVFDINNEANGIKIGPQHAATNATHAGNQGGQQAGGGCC
T3 sequence (P23219 24-599): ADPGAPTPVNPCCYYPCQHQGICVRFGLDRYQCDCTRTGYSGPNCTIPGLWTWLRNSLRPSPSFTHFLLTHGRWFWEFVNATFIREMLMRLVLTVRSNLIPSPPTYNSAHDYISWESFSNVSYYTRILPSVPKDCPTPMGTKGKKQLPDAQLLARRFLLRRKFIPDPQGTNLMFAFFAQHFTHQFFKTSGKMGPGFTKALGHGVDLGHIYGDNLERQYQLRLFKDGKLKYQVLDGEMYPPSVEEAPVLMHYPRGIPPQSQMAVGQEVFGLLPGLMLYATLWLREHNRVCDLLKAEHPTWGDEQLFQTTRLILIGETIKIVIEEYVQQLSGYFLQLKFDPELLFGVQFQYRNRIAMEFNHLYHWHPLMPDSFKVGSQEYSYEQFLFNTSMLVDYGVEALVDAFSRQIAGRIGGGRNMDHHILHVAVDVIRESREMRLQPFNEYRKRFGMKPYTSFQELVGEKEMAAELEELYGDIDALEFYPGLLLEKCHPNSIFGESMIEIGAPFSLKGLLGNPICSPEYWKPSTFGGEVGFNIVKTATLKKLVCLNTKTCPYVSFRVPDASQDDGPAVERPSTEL
Cdc42Q61L activating mutant, sequence (P60953 whole entry Q61L): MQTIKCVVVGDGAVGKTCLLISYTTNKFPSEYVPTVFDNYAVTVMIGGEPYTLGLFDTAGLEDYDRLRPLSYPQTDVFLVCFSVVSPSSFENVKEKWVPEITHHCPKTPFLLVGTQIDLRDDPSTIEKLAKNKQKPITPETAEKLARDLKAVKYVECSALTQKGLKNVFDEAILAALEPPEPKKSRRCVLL
T4 sequence (P60953 whole entry): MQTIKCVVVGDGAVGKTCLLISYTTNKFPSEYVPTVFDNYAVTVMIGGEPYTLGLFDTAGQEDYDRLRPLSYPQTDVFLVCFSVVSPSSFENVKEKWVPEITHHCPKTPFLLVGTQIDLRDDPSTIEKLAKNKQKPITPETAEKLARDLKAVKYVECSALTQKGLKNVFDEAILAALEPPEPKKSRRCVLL
T6 sequence (P60766 whole entry): as the sequence (P60953 whole entry) above
Cdc42 wt, sequence (P60953 whole entry): as above

Structure (SMILES): COc1ccc2cc([C@@H](C)C(=O)O)ccc2c1 [R-naproxen]
EGF-mediated Rac1 activation ([1]; 15 min pretreatment): significantly inhibited
EGF-mediated Rac1 activation ([1]; 1 h pretreatment): reduced activation to basal unstimulated levels
inhibition at 300 µM ([1]; Swiss-3T3, at 300 µM): 100%
H-Ras wt EC50 [2]: inactive
COX-1 Previously Published [3]: R>S
primary screen outcome ([4]; 10 μM compound): positive and hit
Primary Screen Hit ([4]; single dose 10 µM, change in BODIPY-GTP binding on any one GTPase): Active
Rab7 EC50 [5]: inactive
activity against the GTPases in confirmatory dose response assays (words) ([6]; 10 nM to 100 µM): varying activity levels
EC50 ([6]; additional confirmatory dose response assays, different conditions): 3000 to 18000 nM
Rac1 membrane localization ([7]; 300 μM): substantially reduced
Rac PM Localiz. [7, 31]: 34%
Tiam1 membrane localization ([8]; 300 μM): substantially reduced
Tiam1 GEF PM localiz. [8, 31]: 32%
Rab2 EC50 [9]: inactive
invadopodia formation [10]: inhibited
total Rac1 or Tiam1 protein levels ([11]; 300 μM, 24 h, immunoblot): did not alter
Rac protein expression ([11]; immunoblot analysis): No change
cytotoxicity [12]: not cytotoxic
H-Ras (act) EC50 [13]: inactive

dose of maximal inhibitory activity against Rac1 ([1]; 1 h preincubation, EGF stimulation): 50 µM
EC50 [14]: 574 nM
IC50 [15]: 990 nM
EC50 [16]: 1070 nM
IC50 [17]: 7000 nM
IC50 [18]: > 100000 nM
dose of maximal inhibition of Cdc42 activation [20]: 10 µM
Structure (SMILES): O=C(c1ccccc1)c1ccc2n1CC[C@H]2C(=O)O [R-ketorolac]
COX-1 IC50 Previously Published [19]: Not sig
COX-2 IC50 Previously Published [21]: Not sig
COX-2 IC50 Previously Published [22]: Not sig

Structure (SMILES): CCN(CC)CCCC(C)Nc1nc(C)cc(Nc2ccc3nc(C)cc(N)c3c2)n1 (centres unmarked) [NSC23766]
IC50 [24]: < 30000 nM

Rac1 wt EC50 [26]: inactive
H-Ras wt EC50 [2]: inactive
Rab7 EC50 [5]: inactive
Rac1 (act) EC50 [27]: inactive
IC50 [15]: 1800 nM
IC50 [18]: 580 nM
EC50 [29]: 2600 nM
Rab2 EC50 [9]: inactive
EC50 [30]: 5400 nM
H-Ras (act) EC50 [13]: inactive
Structure (SMILES): COc1ccc(C2CC(c3ccccc3)=NN2c2ccc(S(N)(=O)=O)cc2)cc1 (centres unmarked) [CID2950007/ML141]
IC50 [25]: 2100 to 2600 nM
IC50 [28]: ~10000 nM
